In US20260308149A1, “NOVEL CARBOXAMIDE DERIVATIVES” (ANGELINI PHARMA S.P.A., priority 2023, published 2026) one finds EC50 data, which are given here for 30 compounds.

One may read the EC50 as the concentration that produces a half-maximal response.

T1 sequence (O43526 whole entry): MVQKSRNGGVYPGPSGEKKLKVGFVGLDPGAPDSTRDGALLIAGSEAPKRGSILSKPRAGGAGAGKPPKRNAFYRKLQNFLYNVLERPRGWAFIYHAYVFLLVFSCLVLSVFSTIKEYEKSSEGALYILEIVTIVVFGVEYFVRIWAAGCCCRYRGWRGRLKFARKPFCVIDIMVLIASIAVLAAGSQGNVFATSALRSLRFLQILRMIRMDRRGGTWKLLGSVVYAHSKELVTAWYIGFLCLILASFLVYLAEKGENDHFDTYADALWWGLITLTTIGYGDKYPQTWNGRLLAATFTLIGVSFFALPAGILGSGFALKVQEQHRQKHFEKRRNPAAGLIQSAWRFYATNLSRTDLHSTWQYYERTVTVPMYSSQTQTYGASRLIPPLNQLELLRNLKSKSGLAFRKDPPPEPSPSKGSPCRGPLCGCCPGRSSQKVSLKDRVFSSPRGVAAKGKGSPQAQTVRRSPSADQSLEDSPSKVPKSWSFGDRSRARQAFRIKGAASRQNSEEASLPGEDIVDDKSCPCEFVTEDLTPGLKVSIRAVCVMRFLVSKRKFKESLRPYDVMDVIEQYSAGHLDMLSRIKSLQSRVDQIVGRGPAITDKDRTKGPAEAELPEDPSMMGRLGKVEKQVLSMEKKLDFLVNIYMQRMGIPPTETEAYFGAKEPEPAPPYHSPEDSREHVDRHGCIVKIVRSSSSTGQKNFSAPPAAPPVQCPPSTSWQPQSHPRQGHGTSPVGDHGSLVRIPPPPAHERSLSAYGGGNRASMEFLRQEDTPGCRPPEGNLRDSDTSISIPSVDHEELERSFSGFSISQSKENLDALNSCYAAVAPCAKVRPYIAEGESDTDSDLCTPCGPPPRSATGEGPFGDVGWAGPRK

The experiment concerns the target T1, human Kv7.2 (Homo sapiens, UniProt O43526).
T1 construct: expressed in transfected cells
Nature of the experiment: activation (potentiation) of Kv7.2 current, SyncroPatch 384 electrophysiology in CHO cells stably expressing human Kv7.2. The class given is cell-based. The note with it: human Kv7.2 in CHO cells; in presence of 5.6 μM zinc pyrithione; % activation relative to 30 μM ML-213. As for the experimental part:
The potency of Kv7 potentiators was determined using the SyncroPatch 384 (Nanion) high throughput electrophysiology platform.
CHO cells stably expressing either human Kv7.2, Kv7.4 or Kv7.5/7.3 under a constitutive CMV promoter were used for these studies. Cells were maintained in F12 Hams+1 mM L-glutamine (Hyclone) supplemented with 10% FBS (Sigma), 0.3×NEAA (Non-essential Gamino-acids) and 400 ug/ml G418 at 37° C. in 5% CO2. Cells were cultured in T-225 flasks (Nunc) for 2-3 days to reach 85-95% confluence prior to electrophysiological recording.
Earle's balanced salt solution (in mM): 135 NaCl, 5.4 KCl, 5 Glucose, 2 CaCl2), 1 MgCl2, 5 HEPES, pH 7.4. Seal enhancer solution (in mM): 90 NaCl, 3 KCl, 35 CaCl2), 10 MgCl2, 10 HEPES, pH 7.4. Extracellular recording solution (in mM): 71 NaCl, 70 NMDG, 13 KCl. 5 Glucose, 2 CaCl2, 1 MgCl2, 10 HEPES, pH 7.4. Intracellular recording solution (in mM): 130 KF, 20 KCl, 4 EGTA, 10 HEPES, 2 EDTA, 0.01 Escin, pH 7.2.
Cells were harvested for electrophysiological recording upon reaching appropriate confluence. Cells were first washed in DPBS (Hyclone, Cat #SH30028.03) and then 2 ml of Accutase (MP Biomedicals #1000449) was added at 28° C. until ~90% of cells were suspended. F12 HAM's media+1 mM L-glutamine (Hyclone, SH30026.02) was then added to the flask to dilute the accutase. Cells were then triturated until a single cell suspension was achieved, a cell count was performed, and cells were centrifuged for 2 min. at 1,000 rpm. Media was then aspirated, and cells were resuspended in Earle's balanced salt solution to a concentration of 0.75×10^6 cells/ml and allowed to recover for 25 min at 10° C.
At the beginning of each assay, 20 μl of cell suspension was dispensed into each well of a multi-hole 384-well SyncroPatch chip by the onboard pipettor. Cell sealing was initiated, and seal enhancer solution was added to facilitate seal formation. Upon completion of sealing, cells were washed 3 times with extracellular recording solution and the assay voltage protocol was started. Human Kv7.2, Kv7.4 or Kv7.5/7.3 channels were evaluated using a voltage protocol in which cells were voltage-clamped at a holding potential of −60 mV. Potassium currents were continuously activated with a series of three voltage steps to −30 mV for 3 seconds, 40 mV for 1 second and −90 mV for 4 seconds with 12 seconds between successive voltage sweeps. Potassium currents were measured from the −90 mV repolarizing step. Baseline current was assessed for 3.5 minutes prior to the addition of 5.6 μM zinc pyrithione (1 μM for Kv7.4). Kv7.2, Kv7.4 or Kv7.5/7.3 current in the presence of zinc pyrithione was acquired over five minutes to allow channels to reach steady state activity prior to addition of test agents. Channel activity was monitored for three minutes preceding the addition of 30 μM ML-213 (3 minutes) to achieve maximum activation. 150 mM TEA with 10 μM XE-991 was applied for 2 minutes to measure the leak current during maximum inhibition of Kv7.2, Kv7.4 or Kv7.5/7.3 channels.
Data were collected on the SyncroPatch platform using PatchControl software (Nanion) and processed and analyzed using DataControl Software (Nanion). Percent activation was calculated from potassium current as follows: The average current for the 5 sweeps in the presence of zinc pyrithione immediately preceding test agent addition was taken as the ‘control’ data. Likewise, the average potassium current in the presence of test agents 5 sweeps immediately preceding addition of 30 μM ML-213 was determined for ‘drug’ data. The average potassium current 5 sweeps immediately prior to addition of 150 mM TEA+10 μM XE-991 was determined for ‘max activation’ data while average currents from 5 sweeps immediately following addition of TEA was determined for ‘max inhibition’ data. Percent activation for each of the 384-wells of a sealchip was calculated as ((‘drug’−‘max inhibition’)/(‘max activation’−‘max inhibition’))*100 with Pipeline Pilot (Accelrys). […]
On the technique in general: The patch-clamp technique gives a direct electrical read-out from membranes.
In the case of `N#Cc1cccc([C@]2(CNC(=O)C(F)C3CC4CCC3C4)CCO2)c1` (stereo partly drawn) [Example 131, N-[[(2S)-2-(3-cyanophenyl)oxetan-2-yl]methyl]-2-fluoro-2-norbornan-2-yl-acetamide], the EC50 is 5.95 µM.
The figure for `O=C(NCC1(c2cccc(Cl)c2)COC1)[C@H]1C[C@@H]1c1ccccc1` [Example 68, (1S,2S)—N-[[3-(3-chlorophenyl)oxetan-3-yl]methyl]-2-phenyl-cyclopropanecarboxamide] is 0.2 µM; for `COC(C)(CNC(=O)Nc1cccc(OC(F)(F)F)c1)c1cccc(Cl)c1` (stereo not drawn) [Example 29, 1-[2-(3-chlorophenyl)-2-methoxy-propyl]-3-[3-(trifluoromethoxy)phenyl]urea] it is 5.69 µM.
The figure for `COC(CNC(=O)Cc1cccc2ccccc12)c1ccccc1Cl` (stereo not drawn) [Example 36, N-[2-(2-chlorophenyl)-2-methoxy-ethyl]-2-(1-naphthyl)acetamide] is 1.58 µM; for `N#Cc1cccc([C@]2(CNC(=O)CC3CC4CCC3C4)CCO2)c1` (stereo partly drawn) [Example 108, N-[[(2S)-2-(3-cyanophenyl)oxetan-2-yl]methyl]-2-norbornan-2-yl-acetamide] it is 0.41 µM; for `COc1cccc(NC(=O)NCC2(c3cccc(C)c3)OCCO2)c1` [Example 27, 1-(3-methoxyphenyl)-3-[[2-(m-tolyl)-1,3-dioxolan-2-yl]methyl]urea] it is 3.27 µM.
Then `O=C1CCC(CNC(=O)[C@H]2C[C@@H]2c2ccccc2)(c2cccc(Cl)c2)O1` (stereo partly drawn) [Example 66, (1S,2S)-N-[[2-(3-chlorophenyl)-5-oxo-tetrahydrofuran-2-yl]methyl]-2-phenyl-cyclopropanecarboxamide], with 0.08 µM; and `COC(C)(CNC(=O)[C@H]1C[C@@H]1c1ccccc1)c1ccnc(Cl)c1` (mixture of isomers) [Example 51, (1S,2S)-N-[(2RS)-2-(2-chloro-4-pyridyl)-2-methoxy-propyl]-2-phenyl-cyclopropanecarboxamide], with 0.94 µM; and `CO[C@@](C)(CNC(=O)[C@@H]1C[C@H]1C1CC1)c1cccc(Cl)c1` (mixture of isomers) [Example 79, (1RS,2SR)—N-[(2R)-2-(3-chlorophenyl)-2-methoxy-propyl]-2-cyclopropyl-cyclopropanecarboxamide], with 1.12 µM.
For the compound `O=C(NCC1CCCC1)NCC1(c2cccc(Cl)c2)CCC(=O)O1` (stereo not drawn) [Example 75, 1-[[2-(3-chlorophenyl)-5-oxo-tetrahydrofuran-2-yl]methyl]-3-(cyclopentylmethyl)urea], the EC50 came to 0.29 µM.
Take `O=C(NCC1(c2cccc(Cl)c2)CC1)NC1CCCC1` [Example 7, 1-[[1-(3-chlorophenyl)cyclopropyl]meth-yl]-3-cyclopentyl-urea]: the EC50 came to 2.72 µM.
The figure for `COC(C)(CNC(=O)NCC1CC1)c1cccc(Cl)c1` (stereo not drawn) [Example 23, 1-[2-(3-chlorophenyl)-2-methoxy-propyl]-3-(cyclopropylmethyl)urea] is 8.2 µM; for `N#Cc1cccc([C@]2(CNC(=O)CC3CCCCC3)CCO2)c1` [Example 93, N-[[(2S)-2-(3-cyanophenyl)oxetan-2-yl]methyl]-2-cyclohexyl-acetamide] it is 5.43 µM; for `N#Cc1cccc([C@]2(CNC(=O)C3CCC4(CCC4)C3)CCO2)c1` (stereo partly drawn) [Example 102, N-[[(2S)-2-(3-cyanophenyl)oxetan-2-yl]methyl]spiro[3.4]octane-7-carboxamide] it is 3.01 µM.
Then `N#Cc1cccc([C@]2(CNC(=O)C3CC34CCOCC4)CCO2)c1` (stereo partly drawn) [Example 106, N-[[(2S)-2-(3-cyanophenyl)oxetan-2-yl]methyl]-6-oxaspiro[2.5]octane-2-carboxamide], with 4.08 µM; and `N#Cc1cccc([C@]2(CNC(=O)[C@H]3C[C@@H]3c3ccccc3)CCO2)c1` [Example 49, (1S,2S)-N-[[(2S)-2-(3-cyanophenyl)oxetan-2-yl]methyl]-2-phenyl-cyclopropanecarboxamide], with 0.04 µM; and `COC(C)(CNC(=O)Nc1cccc(C)c1)c1cccc(Cl)c1` (stereo not drawn) [Example 6, 1-[2-(3-chlorophenyl)-2-methoxy-propyl]-3-(m-tolyl)urea], with 2.41 µM.
Then `COC(CNC(=O)[C@H]1C[C@@H]1c1ccccc1)c1cccc(Cl)c1` (mixture of isomers) [Example 20, rac-(1R,2R)-N-[2-(3-chlorophenyl)-2-methoxy-ethyl]-2-phenyl-cyclopropanecarboxamide], with 0.97 µM; and `N#Cc1cccc([C@]2(CNC(=O)[C@H]3C[C@@H]3C(F)(F)F)CCO2)c1` [Example 95, (1S,2S)—N-[[(2S)-2-(3-cyanophenyl)oxetan-2-yl]methyl]-2-(trifluoromethyl)cyclopropanecarboxamide], with 2.55 µM.
For `COC(C)(CNC(=O)NC1CC2CCC1C2)c1cccc(Cl)c1` (racemic) [Example 35, 1-[2-(3-chlorophenyl)-2-methoxy-propyl]-3-[rac-(1S,4R)-norbornan-2-yl]urea], the EC50 was 1.35 µM.
The figure for `O=C(NCC1(c2cccc(Cl)c2)CC1)NC1COC2(CCCC2)C1` (stereo not drawn) [Example 12, 1-[[1-(3-chlorophenyl)cyclopropyl]meth-yl]-3-(1-oxaspiro[4.4]nonan-3-yl)urea] is 2.92 µM.
For the compound `O=C(NCC(OC1CCC1)c1cccc(Cl)c1)NC1C[C@H]2CC[C@@H]1C2` (mixture of isomers) [Example 46, 1-[2-(3-chlorophenyl)-2-(cyclobutoxy)ethyl]-3-[rac-(1R,4S)-norbornan-2-yl]urea], the EC50 came out at 3.35 µM.
Then `O=C(CC1CCC(F)(F)CC1)NCC1(c2cccc(Cl)c2)CCO1` (stereo not drawn) [Example 65, N-[[2-(3-chlorophenyl)oxetan-2-yl]methyl]-2-(4,4-difluorocyclohexyl)acetamide], with 1.92 µM; and `COc1cccc(NC(=O)NCC(C)(OC)c2cccc(Cl)c2)c1` (stereo not drawn) [Example 5, 1-[2-(3-chlorophenyl)-2-methoxy-propyl]-3-(3-methoxyphenyl)urea], with 1.04 µM; and `COC(C)(CNC(=O)C1CC1c1ccccc1F)c1cccc(Cl)c1` (stereo not drawn) [Example 43, N-[2-(3-chlorophenyl)-2-methoxy-propyl]-2-(2-fluorophenyl)cyclopropanecarbox-amide], with 0.11 µM.
In the case of `N#Cc1cccc(C2(CNC(=O)CC3CCCCC3)OCC2(F)F)c1` (stereo not drawn) [Example 91, N-[[2-(3-cyanophenyl)-3,3-difluoro-oxetan-2-yl]methyl]-2-cyclohexyl-acetamide], the EC50 was 1.12 µM.
Then `N#Cc1cccc([C@]2(CNC(=O)[C@H]3C[C@@H]3c3ccccn3)CCO2)c1` (mixture of isomers) [Example 124, (1SR,2SR)—N-[[(2S)-2-(3-cyanophenyl)oxetan-2-yl]methyl]-2-(2-pyridyl)cyclopropanecarboxamide], with 6.01 µM; and `O=C(CC1CCCCC1)NCC1(c2cccc(OC(F)F)n2)CCO1` (stereo not drawn) [Example 119, 2-cyclohexyl-N-[[2-[6-(difluoromethoxy)-2-pyridyl]oxetan-2-yl]methyl]acetamide], with 0.66 µM.
As for `CCCCNC(=O)NCC(C)(OC)c1cccc(Cl)c1` (stereo not drawn) [Example 8, 1-butyl-3-[2-(3-chlorophenyl)-2-methoxy-propyl]urea], the concentration for a half-maximal effect (EC50) is 3.65 µM.
Regarding `O=C(NCC(CO)c1cccc(Cl)c1)[C@H]1C[C@@H]1c1ccccc1` (stereo partly drawn) [Example 74, (1S,2S)—N-[2-(3-chlorophenyl)-3-hydroxy-propyl]-2-phenyl-cyclopropanecarboxamide], the EC50 worked out at 3.1 µM.
